In experiment [1] the test system is HCC1806 cells. Nature of the experiment: Immunoblot of pS6 and pERK in HCC1806 cells. It is filed as cell-based, human. The note with it: 25 μM, 48 hrs. On the procedure:
For immunoreactivity studies, tissue samples were diluted to 100 mg/mL in lysis buffer (#7018s, Cell Signaling Technology) and subsequently homogenized, sonicated, and spun at 3.5K RPM for 1 min. Lysate samples were then screened against an array of target-specific capture antibodies using PathScan Intracellular Signaling Array Kits (#7323, Cell Signaling Technology) in accordance with the manufacturer's instructions and developed using HyBlot CL autoradiography film (# e3012, Denville Scientific Inc.). Processed films were digitized using an Epson Perfection V600 Photo scanner and the relative pixel intensities for each blot quantified using the image processing software ImageJ. Complementary western blot studies were performed by loading 20-40 μg of protein into 7.5-12% SDS PAGE gels, […]. Membranes were blocked overnight at 4° C. in trisbuffered saline 0.1% Tween-20 (TBST) containing 5% w/v nonfat dry milk powder and subsequently incubated with antibodies to p-ERK 1/2 Thr202/Tyr204 (Cell Signaling, 4370), pS6 (Cell Signaling, #4858) LC3B, (anti LC3B, Cell signaling 2775), or b-tubulin (Novus Biologicals, NB600-936); Membrane chemiluminescence was imaged on a Xenogen IVIS 200 system.
A general note: Immunoblotting shows a protein as a band on a membrane.

In another experiment the test system is HT29 xenografts. Nature of the experiment: Global metabolomic analysis of HT29 xenografts. It is filed as in vivo, mouse. The following applies: 21 consecutive days. On the procedure: Metabolomic data acquisition was outsourced to Metabolon, Inc. Samples were prepared using the automated MicroLab STAR® system from Hamilton Company. To remove protein, dissociate small molecules bound to protein or trapped in the precipitated protein matrix, and to recover chemically diverse metabolites, proteins were precipitated with methanol under vigorous shaking for 2 min (Glen Mills GenoGrinder 2000) followed by centrifugation. The resulting extract was divided into five fractions: two for analysis by two separate reverse phase (RP)/UPLC-MS/MS methods with positive ion mode electrospray ionization (ESI), one for analysis by RP/UPLC-MS/MS with negative ion mode ESI, one for analysis by HILIC/UPLC-MS/MS with negative ion mode ESI, and one sample was reserved for backup. Samples were placed briefly on a TurboVap® (Zymark) to remove the organic solvent. All methods utilized a Waters ACQUITY ultra-performance liquid chromatography (UPLC) and a Thermo Scientific Q-Exactive high resolution/accurate mass spectrometer interfaced with a heated electrospray ionization (HESI-II) source and Orbitrap mass analyzer operated at 35,000 mass resolution. The sample extract was dried then reconstituted in solvents compatible to each of the four methods. Each reconstitution solvent contained a series of standards at fixed concentrations to ensure injection and chromatographic consistency. One aliquot was analyzed using acidic positive ion conditions, chromatographically optimized for more hydrophilic compounds. […] Another aliquot was also analyzed using acidic positive ion conditions, however it was chromatographically optimized for more hydrophobic compounds. […] Another aliquot was analyzed using basic negative ion optimized conditions using a separate dedicated C18 column. […] The fourth aliquot was analyzed via negative ionization following elution from a HILIC column (Waters UPLC BEH Amide 2.1×150 mm, 1.7 μm) using a gradient consisting of water and acetonitrile with 10 mM Ammonium Formate, pH 10.8. […] Peaks were quantified using area-under-the-curve. […]

Experiment [2] relates to HCC1806 cells. Nature of the experiment: Glutathione and reactive oxygen species in HCC1806 cells. It counts as cell-based, human. On the procedure:
Glutathione levels were measured using a commercially available kit (Cayman Chemical 703002) according to the manufacturers protocol. Concurrently ROS was measured in cells using CM-H2DCFDA (Life Technologies C6827) coupled with flow cytometry in accordance with the manufacturers protocol. The assay was replicated replicated at least three times, technically and biologically. Significance was calculated using a t-test in Graphpad Prism. Error is reported as standard deviation (SD).

Experiment [3] deals with patient-derived xenograft (PDX) tumor A-008. Nature of the experiment: Patient-derived xenograft chronic exposure study. It counts as in vivo, mouse. The note with it: 75 mg/kg daily, 31 days; vs vehicle. On the procedure:
For in vivo studies, cell-line xenograft tumors were propagated in 6-week old, female athymic nude mice from immortalized cell lines. For HCC-1806 (10×10^6 cells), HCT-116 (5×10^6), and HT29 (10×10^6) cells were injected. Palpable tumors were typically visible within 2-3 weeks. For imaging studies (HCC-1806), tumors were propagated to approximately 500 mm^3. For treatment studies (HCT-116, HT29) tumors were propagated to approximately 200 mm^3 prior to therapy and were randomly assigned into treated and untreated cohorts. For generating the PDX, primary tumor tissue was obtained form a patient at Vanderbilt University Medical Center under an IRB approved protocol. The tumor tissue was genotyped within the VANTAGE core facility. Xenograft was generated as previously described 41. Briefly, tumor tissues were sectioned into approximately 125 cubic millimeter pieces then implanted subcutaneously without further manipulation. […] Tumor volumes were measured manually using calipers every third day and quantified using the formula V=W·L·(H/2).

For the compound `Cc1cccc(COc2ccccc2CN(CCC(N)C(=O)O)Cc2ccccc2OCc2cccc(C)c2)c1` (centres unmarked) [Compound V-9302], in the experiment with HCC1806 cells [1], the pERK entry was “modest decrease in pERK” and the pS6 result is reported as “significantly decreased pS6”. Moreover, in the experiment on HT29 xenografts, the “creatine-phosphate levels in treated tumors” value is reported as “significantly reduced”; the “oxidized glutathione (GSSG) and 4-hydroxy-nonenal-glutathione in tumors” value was “significantly elevated”; the “reduction of N-acetylserine in treated tumors” value is given as “greater than 4 fold”. In addition, in the experiment with HCC1806 cells [2], the “intracellular reactive oxygen species (ROS)” value is on record as “corresponding increase in intracellular reactive oxygen species (ROS)”; the “oxidized (GSSG) and reduced (GSH) glutathione” value is listed as “increased levels of oxidized glutathione (GSSG) at the expense of reduced glutathione (GSH)”. Moreover, in experiment [3], the tumor volume entry is reported as “reduction in tumor volume”.

Source of the values: patent US10793514B2, “Glutamine transport inhibitors and methods for treating cancer” (Vanderbilt University, priority 2016, dated 2020).
